Assay results taken from US20250186556A1, “COMBINATION THERAPY WITH IMMUNOMODULATORS, DYRK1A INHIBITORS, AND GLP1R AGONISTS FOR TYPE 1 DIABETES TREATMENT” (ICAHN SCHOOL OF MEDICINE AT MOUNT SINAI, priority 2022, published 2025).

Key:
[1] = tested on: human β-cells; assay: Analysis of human β-cell death in vitro (TUNEL/insulin staining); type: cell-based; conditions: 10 μM harmine, 10 nM exendin-4, 24 hours, TUNEL
Method: Briefly, after washing the human islets with PBS twice, 200 μl pre-warmed Accutase (Corning) was added, and the tube was incubated at 37° C. for 10 minutes. Then, complete RPMI medium (RPMI with 5 mM D-glucose, 10% FBS, 100 units/ml penicillin, and 100 μg/ml streptomycin) was added, the sample was centrifuged at 1000 rpm for three min, the pellet was washed with PBS and centrifuged again at 1000 rpm for three min. The pellet was resuspended in complete RPMI medium and 50,000 cells/well were plated on 12-mm glass coverslips, placed in 24-well plates, and incubated at 37° C. and 5% CO2 for 24 hours. […] Cells were incubated at 37° C. and 5% CO2 for 24 hours. Then, cells were fixed in 4% paraformaldehyde and TUNEL (cell death marker) and insulin staining were performed using the DeadEnd Fluorometric TUNEL System (Promega), anti-proinsulin/C-peptide antibody (DSHB), and DAPI for nuclei detection. A minimum of 1,500 β-cells were examined per coverslip.

[2] = tested on: human β-cells; assay: Human islet single cell RNA sequencing (scRNA-seq), gene set enrichment in β-cells; type: cell-based; conditions: human islets, 10 μM harmine, 10 nM exendin-4, 6 h
Method: After treatment, human islets were washed twice with PBS and centrifuged at 300 rpm for three min. After removing the PBS, 200 μl pre-warmed Accutase was added and the islets were incubated at 37° C. for 10 minutes. Then, complete RPMI medium was added, the sample centrifuged at 1000 rpm for three min, and the pellet was washed with PBS. Cells were then resuspended in binding buffer (Miltenyi Biotec) and dead cell removal beads, the tube was incubated for 15 minutes at room temperature and the cell suspension applied onto the dead cell removal column (Miltenyi Biotec), which was attached to the MACS separator. […]
Cell samples were prepared according to the user guide of 10× Genomics Single Cell 3′ V3.1 Reagent Kit, processed with 10× Genomic Chromium Controller for partitioning and barcoding, followed by the cDNA library generation. The total cell concentration analyzed by the Countess 3 was then sequenced by the NovaSeq 6000 System (Illumina). […] After the 10×, h5 format file was generated, the data were analyzed on the R language platform with Seurat package V.4.0. […]
After assessment of the data quality control parameters as above, integrated scRNA-data were created with Seurat's SCTransform function without allocating method parameters. […] After enrichment scores were calculated for each single cell, they were added to the Meta data for analysis and visualization by dotplot.

[3] = tested on: patients with new-onset type 1 diabetes; conditions: for up to seven years following initial diagnosis; cited from earlier work

Row | Molecule | human β-cell death induced by thapsigargin ([1]; 500 nM thapsigargin) | human β-cell death induced by cytokines ([1]; cytokines IL-1β, TNF-α, IFN-γ) | inhibitory HLA-E expression in β-cells treated with cytokines [2] | expression of pro-inflammatory, intrinsic and extrinsic apoptosis, HLA class I, chemokines CXCL9-11 and interferon regulatory factor 1-9 signaling pathways in β-cells treated with cytokines ([2]; GSEA) | loss of β-cell function [3]
1 | COc1ccc2c(c1)[nH]c1c(C)nccc12 [harmine] | non-significant, partial protection | non-significant, partial protection | increased | not with the drugs alone | –
2 | teplizumab: humanized, non-mitogenic aglycosylated anti-CD3 monoclonal antibody | – | – | – | – | reduces the loss of β-cell function
